In ChEMBL document CHEMBL1250454, “Oral oxytocin antagonists” (J Med Chem, 2010):
Values after ≈ are worked out from the molar mass of the structure shown. Each block holds one compound with its values, some of them ahead of it.

What was measured:
[1] = system: Rattus norvegicus; test: Inhibition of oxytocin-induced uterine contraction in intraduodenally dosed rat; type: functional
[2] = Oral bioavailability in dog; type: ADME, organism-based, Canis lupus familiaris; settings: in vivo
[3] = target: Vasopressin V2 receptor (Homo sapiens, UniProt P30518); test: Displacement of [3H]vasopressin from vasopressin V2 receptor in human kidney tissue
Chain of Vasopressin V2 receptor (Homo sapiens, UniProt P30518) (P30518 whole entry): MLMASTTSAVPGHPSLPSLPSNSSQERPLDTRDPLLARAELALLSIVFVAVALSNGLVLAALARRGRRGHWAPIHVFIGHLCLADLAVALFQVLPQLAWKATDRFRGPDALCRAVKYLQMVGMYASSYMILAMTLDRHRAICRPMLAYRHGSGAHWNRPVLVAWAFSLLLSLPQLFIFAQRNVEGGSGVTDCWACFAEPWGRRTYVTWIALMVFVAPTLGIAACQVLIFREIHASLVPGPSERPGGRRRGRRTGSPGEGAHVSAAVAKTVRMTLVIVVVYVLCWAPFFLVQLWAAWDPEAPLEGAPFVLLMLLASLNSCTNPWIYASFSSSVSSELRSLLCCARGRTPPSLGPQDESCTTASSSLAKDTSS

[4] = species: Homo sapiens; test: Selectivity ratio of Ki for human oxytocin receptor Ki for human vasopressin V1a receptor
[5] = species: Homo sapiens; test: Selectivity ratio of Ki for human oxytocin receptor Ki for human vasopressin V2 receptor
[6] = system: Rattus norvegicus; test: Inhibition of oxytocin-induced uterine contraction in iv dosed rat; type: functional
[7] = Aqueous solubility of the compound at pH 5.2; type: physicochemical; settings: buffer
[8] = target: T1, Oxytocin receptor (Rattus norvegicus, UniProt P70536); test: Displacement of [3H]-oxytocin from oxytocin receptor in rat uterus tissue; type: tissue-based
T1 sequence (P70536 whole entry): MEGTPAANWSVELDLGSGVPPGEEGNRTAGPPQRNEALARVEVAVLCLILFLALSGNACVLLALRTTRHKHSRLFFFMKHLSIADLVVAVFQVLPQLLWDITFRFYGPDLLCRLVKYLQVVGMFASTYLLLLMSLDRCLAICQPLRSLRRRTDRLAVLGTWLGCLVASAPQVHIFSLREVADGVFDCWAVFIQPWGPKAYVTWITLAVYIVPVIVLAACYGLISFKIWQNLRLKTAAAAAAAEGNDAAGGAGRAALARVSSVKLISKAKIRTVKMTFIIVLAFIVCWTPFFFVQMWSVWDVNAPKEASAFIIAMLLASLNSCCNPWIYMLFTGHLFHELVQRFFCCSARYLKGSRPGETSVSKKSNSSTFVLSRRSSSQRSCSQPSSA

[9] = target: T2, Vasopressin V1a receptor (Homo sapiens, UniProt P37288); test: Displacement of [3H]vasopressin from vasopressin V1a receptor in human liver tissue
Target sequence in this assay (P37288 whole entry): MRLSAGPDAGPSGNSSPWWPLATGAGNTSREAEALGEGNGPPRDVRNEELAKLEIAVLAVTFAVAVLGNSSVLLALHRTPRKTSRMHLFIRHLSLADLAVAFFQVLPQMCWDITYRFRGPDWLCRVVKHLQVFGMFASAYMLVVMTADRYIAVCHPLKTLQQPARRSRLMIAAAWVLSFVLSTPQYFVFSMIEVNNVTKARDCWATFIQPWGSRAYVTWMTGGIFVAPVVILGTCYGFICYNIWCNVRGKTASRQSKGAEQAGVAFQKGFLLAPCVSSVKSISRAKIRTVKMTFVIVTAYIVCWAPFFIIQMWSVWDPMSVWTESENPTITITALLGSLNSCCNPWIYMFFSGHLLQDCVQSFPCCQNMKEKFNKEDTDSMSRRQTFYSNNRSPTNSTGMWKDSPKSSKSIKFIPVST

[10] = target: Vasopressin V1a receptor (Rattus norvegicus, UniProt P30560); test: Displacement of [3H]vasopressin from vasopressin V1a receptor in rat liver tissue
Chain of Vasopressin V1a receptor (Rattus norvegicus, UniProt P30560) (P30560 whole entry): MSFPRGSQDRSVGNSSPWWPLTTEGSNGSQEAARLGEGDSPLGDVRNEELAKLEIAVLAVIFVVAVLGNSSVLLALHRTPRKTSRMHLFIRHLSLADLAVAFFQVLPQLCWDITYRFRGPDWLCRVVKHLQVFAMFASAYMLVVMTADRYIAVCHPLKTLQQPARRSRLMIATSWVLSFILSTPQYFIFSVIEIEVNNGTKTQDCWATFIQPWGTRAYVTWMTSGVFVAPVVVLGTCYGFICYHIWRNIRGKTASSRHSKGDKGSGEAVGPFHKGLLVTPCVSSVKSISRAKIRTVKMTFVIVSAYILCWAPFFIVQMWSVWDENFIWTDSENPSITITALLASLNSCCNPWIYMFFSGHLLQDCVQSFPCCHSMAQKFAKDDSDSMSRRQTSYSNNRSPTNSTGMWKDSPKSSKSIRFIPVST

[11] = target: T3, Oxytocin receptor (Homo sapiens, UniProt P30559); test: Displacement of [3H]-oxytocin from oxytocin receptor in human uterus tissue; type: tissue-based
T3 sequence (P30559 whole entry): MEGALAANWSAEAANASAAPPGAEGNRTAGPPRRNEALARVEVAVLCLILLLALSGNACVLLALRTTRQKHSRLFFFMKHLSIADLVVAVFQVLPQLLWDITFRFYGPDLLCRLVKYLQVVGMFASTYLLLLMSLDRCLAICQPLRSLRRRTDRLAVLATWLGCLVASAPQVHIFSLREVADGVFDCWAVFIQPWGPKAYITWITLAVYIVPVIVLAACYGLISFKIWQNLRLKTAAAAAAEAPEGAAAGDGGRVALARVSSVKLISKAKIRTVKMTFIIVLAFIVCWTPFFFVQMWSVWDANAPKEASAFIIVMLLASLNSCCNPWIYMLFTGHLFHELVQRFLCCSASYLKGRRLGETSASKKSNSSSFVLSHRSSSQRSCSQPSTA

[12] = Oral bioavailability in human; type: ADME, organism-based; settings: in vivo
[13] = Oral bioavailability in rat; type: ADME, organism-based; settings: in vivo
[14] = Oral bioavailability in chimpanzee; type: ADME, organism-based, Pan troglodytes; settings: in vivo
[15] = target: Vasopressin V2 receptor (Rattus norvegicus, UniProt Q00788); test: Displacement of [3H]vasopressin from vasopressin V2 receptor in rat kidney tissue
Chain of Vasopressin V2 receptor (Rattus norvegicus, UniProt Q00788) (Q00788 whole entry): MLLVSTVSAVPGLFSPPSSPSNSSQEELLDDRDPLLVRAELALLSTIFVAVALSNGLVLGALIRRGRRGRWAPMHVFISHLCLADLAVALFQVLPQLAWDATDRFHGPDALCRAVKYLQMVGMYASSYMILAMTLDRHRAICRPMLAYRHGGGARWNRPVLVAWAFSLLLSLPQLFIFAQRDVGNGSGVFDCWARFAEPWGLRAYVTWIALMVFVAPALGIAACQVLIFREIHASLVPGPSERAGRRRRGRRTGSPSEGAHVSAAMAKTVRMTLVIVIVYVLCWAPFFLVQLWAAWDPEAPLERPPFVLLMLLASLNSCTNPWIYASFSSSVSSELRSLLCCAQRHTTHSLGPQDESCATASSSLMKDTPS

[16] = target: T1, Oxytocin receptor; test: Displacement of [3H]-oxytocin from rat oxytocin receptor expressed in HEK293-EBNA cells; type: cell-based
[17] = Aqueous solubility of the compound at pH 5; type: physicochemical
[18] = target: T4, Vasopressin V1b receptor (Homo sapiens, UniProt P47901); test: Displacement of [3H]vasopressin from human vasopressin V1b receptor expressed in CHO cells; type: cell-based
T4 sequence (P47901 whole entry): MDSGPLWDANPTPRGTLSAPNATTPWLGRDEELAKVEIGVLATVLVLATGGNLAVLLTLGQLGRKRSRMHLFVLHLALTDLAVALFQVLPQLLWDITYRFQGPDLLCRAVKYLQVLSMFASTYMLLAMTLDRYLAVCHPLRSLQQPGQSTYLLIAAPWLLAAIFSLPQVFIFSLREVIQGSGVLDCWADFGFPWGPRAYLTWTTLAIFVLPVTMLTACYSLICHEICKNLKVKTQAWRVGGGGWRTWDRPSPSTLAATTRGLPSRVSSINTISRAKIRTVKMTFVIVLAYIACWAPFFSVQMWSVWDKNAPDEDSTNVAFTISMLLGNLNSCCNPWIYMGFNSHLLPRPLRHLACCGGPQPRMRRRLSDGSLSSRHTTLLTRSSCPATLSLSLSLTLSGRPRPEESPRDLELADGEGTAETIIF

[19] = Oral bioavailability in rhesus monkey; type: ADME, organism-based, Macaca mulatta; settings: in vivo
[20] = Half life in rhesus monkey; type: ADME, organism-based, Macaca mulatta; settings: in vivo
[21] = target: T2, Vasopressin V1a receptor; test: Displacement of [3H]vasopressin from human vasopressin V1a receptor expressed in CHO cells at 10 uM; type: cell-based
[22] = target: T3, Oxytocin receptor; test: Displacement of [3H]-oxytocin from human oxytocin receptor expressed in CHO cells; type: cell-based
[23] = system: Rattus norvegicus; test: Inhibition of oxytocin-induced uterine contraction in iv dosed non-pregnant anaesthetized rat; type: functional
[24] = system: Rattus norvegicus; test: Inhibition of oxytocin-induced uterine contraction in non-pregnant anaesthetized rat at 30 mg/kg, po; type: functional
[25] = species: Homo sapiens; test: Selectivity ratio of Ki for human oxytocin receptor Ki for human vasopressin V1b receptor
[26] = system: Rattus norvegicus; test: Inhibition of oxytocin-induced uterine contraction in long-term pregnant anaesthetized rat at 30 mg/kg, po; type: functional; settings: read-out: INH
[27] = target: T4, Vasopressin V1b receptor; test: Displacement of [3H]vasopressin from human vasopressin V1b receptor
[28] = target: T2, Vasopressin V1a receptor; test: Displacement of [3H]vasopressin from human vasopressin V1a receptor
Target sequence in this assay (P37288 whole entry): as the sequence (P37288 whole entry) above

[29] = target: T1, Oxytocin receptor; test: Displacement of [3H]-oxytocin from rat oxytocin receptor expressed in CHO cells; type: cell-based
[30] = system: Rattus norvegicus; test: Inhibition of oxytocin-induced uterine contraction in pregnant rat at 60 mg/kg, po; type: functional
[31] = system: Rattus norvegicus; test: Inhibition of oxytocin-induced uterine contraction in non-pregnant rat at 30 mg/kg, po; type: functional
[32] = target: T2, Vasopressin V1a receptor; test: Displacement of [3H]vasopressin from human vasopressin V1a receptor expressed in CHO cells; type: cell-based
Target sequence in this assay (P37288 whole entry): as above

[33] = system: Rattus norvegicus; test: Inhibition of oxytocin-induced uterine contraction in po dosed rat; type: functional
[34] = Protein binding in human serum; type: ADME, cell-free; settings: read-out: PB (converted)
[35] = target: T3, Oxytocin receptor; test: Displacement of [3H]-oxytocin from human oxytocin receptor expressed in HEK293-EBNA cells; type: cell-based
[36] = Half life in rat; type: ADME, organism-based; settings: in vivo
[37] = Clearance in rat; type: ADME, organism-based; settings: in vivo

bioavailability [2]: 25%
Ki [3]: 0.59 µM
Ratio Ki [4]: 14
Ratio Ki [5]: 45
solubility [7]: 2.5 mg/kg
Ki [8]: 0.0036 µM
Ki [9]: 0.18 µM
Ki [10]: 0.11 µM
Ki [11]: 0.013 µM
bioavailability [12]: 20%
bioavailability [13]: 35%
bioavailability [14]: 21%
Ki [15]: 0.2 µM
Compound: Cc1ccccc1N1CCN(S(=O)(=O)C[C@]23CC[C@H](C[C@@H]2NC(=O)[C@@H](N)CCS(C)(=O)=O)C3(C)C)CC1
AD50 [1]: 7 mg/kg
AD50 [6]: 0.35 mg/kg

Ki [16]: 0.025 µM
solubility [17]: < 1 µg/mL
Ki [18]: 2.5 µM
Compound: CCOc1ccc(S(=O)(=O)N(CC(=O)NN=C2C(=O)Nc3ccccc32)c2ccc(C)cc2)cc1

Compound: COc1cc(OC2CCN(Cc3ccc[n+]([O-])c3C)CC2)ccc1C(=O)N1CCC(N2C(=O)OCc3ccccc32)CC1
bioavailability [19]: 36%
AD50 [1]: 2.5 mg/kg
solubility [17]: 10000 µg/mL (≈ 17000 µM)
Ki [3]: 28 µM
Ratio Ki [4]: 650
Ratio Ki [5]: > 5700
AD50 [6]: 0.78 mg/kg
Ki [8]: 0.014 µM
Ki [9]: 3.2 µM
Ki [10]: 0.00076 µM
Ki [11]: 0.0049 µM
bioavailability [13]: 80%
bioavailability [14]: 90%
Ki [15]: 9.7 µM
half-life [20]: 2 h

inhibition [21]: 68%
IC50 [22]: 0.26 µM
Compound: CO/N=C1\C[C@@H](C(=O)NCC(O)c2ccccc2)N(C(=O)c2ccc(-c3ccccc3)cc2)C1 (stereo not given in full)

Ki [10]: 9.8 µM
Ki [11]: 1 µM
Ki [15]: > 40 µM
Compound: Cc1ccc(S(=O)(=O)N2CCC3(C=Cc4ccccc43)CC2)cc1

Ratio Ki [4]: 100
Compound: CCOc1ccc(S(=O)(=O)N(CC(=O)N/N=C2\C(=O)Nc3ccccc32)c2ccc(C)cc2)cc1
ED50 [23]: 10 mg/kg

Ratio Ki [4]: 60
Ratio Ki [5]: 580
Ratio Ki [25]: 23000
Ki [18]: 0.377 µM
Compound: CN(C)CCCNC(=O)CCc1ccc(S(=O)(=O)N(CC(=O)N/N=C2\C(=O)Nc3ccccc32)c2ccc(Cl)cc2)cc1
inhibition in vivo at 30 mg/kg [24]: 35%
ED50 [23]: 1.4 mg/kg
inhibition in vivo at 30 mg/kg [26]: 35%

Ki [27]: > 6.31 µM
Ki [28]: 6.31 µM
Compound: CC(C)C[C@@H]1C(=O)N[C@H](C2Cc3ccccc3C2)C(=O)N1[C@@H](C(=O)NC(C)C)c1ccc(F)cc1F

Ki [29]: 0.21 µM
Ki [32]: 0.33 µM
fraction unbound [34]: 0.29
bioavailability [13]: 55%
Compound: CO/N=C1/C[C@@H](CO)N(C(=O)c2ccc(-c3ccccc3C)cc2)C1 [NOLASIBAN]
inhibition in vivo at 60 mg/kg [30]: 40%
inhibition in vivo at 30 mg/kg [31]: 51%
ED50 [33]: 30 mg/kg

Ki [21]: 0.06 µM
Ki [35]: 0.05 µM
Compound: CO/N=C1/C[C@H](c2nc(C)no2)N(C(=O)c2ccc(-c3ccccc3C)cc2)C1

solubility [17]: 6 µg/mL (≈ 15.9 µM)
half-life [36]: 1 h
clearance [37]: 50 mL/min/kg
Ki [18]: > 10 µM
Compound: COc1ccc(-n2c(C)nnc2-c2cnc(-c3ccc(F)cc3C)cn2)cn1

Compound: COc1cc(OC2CCN(C(C)=O)CC2)ccc1C(=O)N1CCC(N2C(=O)OCc3ccccc32)CC1
bioavailability [19]: 13%
AD50 [1]: 2.5 mg/kg
AD50 [6]: 0.55 mg/kg
